From patent publication US11345699B2, “Apoptosis signal-regulating kinase 1 inhibitors and methods of use thereof” (Enanta Pharmaceuticals, Inc., priority 2018, dated 2022)
pIC50: −log10 of the molar value.

molecular target: ASK1 (Homo sapiens (Human), UniProt Q99683); assay: HTRF KinEASE Assay (TR-FRET), inhibition of ASK1; type: biochemical; conditions: ASK1 kinase, 100 μM ATP, 1 μM STK3 peptide substrate, compound 0 to 10 μM
Experimental: Assay HTRF® KinEASE™ Assay
ASK1 was purchased from Thermofisher (Catalogue #PV4011), ATP was purchased from Sigma (Catalogue #A7699), HTRF® KinEASE™ Assay System was obtained from Cisbio (Bedford, Mass.). ½ Area plate was purchased from Perkin Elmer (Catalogue ##6005560). HTRF® KinEASE™-STK is a generic method for measuring serine/threonine kinase activities using a time-resolved fluorescence resonance energy transfer (TR-FRET) immunoassay. The IC50 value for each compound was determined in the presence of compound (various concentration from 0 to 10 μM) and a fixed amount of ATP and peptide substrates. The test compound, 1 μM STK3 peptide substrate, and […] of ASK1 kinase are incubated with kinase reaction buffer containing 50 mM HEPES Ph 7.5, 0.01% BRIJ-35, 10 mM MgCl2, and 1 mM EGTA for 30 minutes. 100 μM ATP is added to start kinase reaction and incubated for 3 hours. The STK3-antibody labeled with Eu^3+-Cryptate and 125 nM streptavidin-XL665 are mixed in a single addition with stop reagents provided by the Cisbio kit used to stop the kinase reaction. Fluorescence is detected using an Envision Multilabeled 2014 reader from PerkinElmer. The Fluorescence is measured at 615 nm (Cryptate) and 665 nm (XL665) and a ratio of 665 nm/615 nm is calculated for each well. The resulting TR-FRET is proportional to the phosphorylation level. Staurosporine was used as the positive control. IC50 was determined by Xlfit 5.3.
By using above method, the inhibition of ASK1 was evaluated for the compounds of Formula (I). Example numbers correspond to those in Table 5.

Sequence of ASK1 (Q99683 whole entry): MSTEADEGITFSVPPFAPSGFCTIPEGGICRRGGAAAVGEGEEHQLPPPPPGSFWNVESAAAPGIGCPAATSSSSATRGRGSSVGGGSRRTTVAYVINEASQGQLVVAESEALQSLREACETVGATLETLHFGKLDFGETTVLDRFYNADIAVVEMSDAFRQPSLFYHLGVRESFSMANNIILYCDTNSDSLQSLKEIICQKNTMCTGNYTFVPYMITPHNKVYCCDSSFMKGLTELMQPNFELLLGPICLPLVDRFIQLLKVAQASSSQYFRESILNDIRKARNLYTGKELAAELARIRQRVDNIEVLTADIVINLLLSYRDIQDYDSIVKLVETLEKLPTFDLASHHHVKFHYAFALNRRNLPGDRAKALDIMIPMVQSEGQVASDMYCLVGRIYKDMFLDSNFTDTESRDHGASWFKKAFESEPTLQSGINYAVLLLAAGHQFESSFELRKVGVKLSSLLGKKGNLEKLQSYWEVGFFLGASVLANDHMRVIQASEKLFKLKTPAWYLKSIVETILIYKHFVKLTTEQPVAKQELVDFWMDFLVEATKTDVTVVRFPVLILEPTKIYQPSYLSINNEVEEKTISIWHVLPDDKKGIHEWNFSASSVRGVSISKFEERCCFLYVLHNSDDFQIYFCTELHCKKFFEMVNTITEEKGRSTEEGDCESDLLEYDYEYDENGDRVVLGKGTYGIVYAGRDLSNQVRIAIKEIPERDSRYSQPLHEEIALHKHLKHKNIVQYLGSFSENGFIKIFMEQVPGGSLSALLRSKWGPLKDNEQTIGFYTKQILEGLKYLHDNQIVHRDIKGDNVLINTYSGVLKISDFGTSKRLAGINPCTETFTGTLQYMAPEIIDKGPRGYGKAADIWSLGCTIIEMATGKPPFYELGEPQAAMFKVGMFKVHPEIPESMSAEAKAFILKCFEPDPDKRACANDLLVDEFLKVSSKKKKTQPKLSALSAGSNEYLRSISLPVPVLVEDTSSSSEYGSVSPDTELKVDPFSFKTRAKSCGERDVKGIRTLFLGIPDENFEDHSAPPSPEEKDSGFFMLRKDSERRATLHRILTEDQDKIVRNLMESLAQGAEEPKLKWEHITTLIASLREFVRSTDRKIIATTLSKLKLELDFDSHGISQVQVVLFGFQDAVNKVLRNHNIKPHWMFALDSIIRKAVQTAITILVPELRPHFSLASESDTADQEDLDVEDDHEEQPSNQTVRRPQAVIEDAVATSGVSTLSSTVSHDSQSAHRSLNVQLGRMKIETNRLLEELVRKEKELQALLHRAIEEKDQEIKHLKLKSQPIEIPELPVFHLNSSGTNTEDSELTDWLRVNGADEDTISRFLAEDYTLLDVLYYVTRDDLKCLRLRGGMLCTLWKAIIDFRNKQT

Row | SMILES | pIC50
1 | C[C@H](CO)n1nnnc1-c1cccc(NC(=O)c2cc3c(cn2)CCN(c2ncccn2)C3)n1 [Example 108, (R)—N-(6-(1-(1-hydroxypropan-2-yl)-1H-tetrazol-5-yl)pyridin-2-yl)-6-(pyrimidin-2-yl)-5,6,7,8-tetrahydro-2,6-naphthyridine-3-carboxamide] | 8.00 to 8.90
2 | CCOC(=O)N1CCc2cc(F)c(C(=O)Nc3cccc(-c4nncn4[C@H](C)CF)n3)cc2C1 [Example 103] | 8.00 to 8.90
3 | COc1cc2c(cc1C(=O)Nc1cccc(-c3nnnn3[C@H](C)CO)n1)CN(C(=O)c1ccccn1)CC2 [Example 101] | > 8.90
4 | CCOC(=O)N1CCc2cnc(C(=O)Nc3cccc(-c4nnnn4[C@@H]4CCC[C@@H]4O)n3)cc2C1 [Example 146] | 7.00 to 8.00
5 | COc1cc2c(cc1C(=O)Nc1cccc(-c3nnnn3[C@H](C)CO)n1)CN(C(=O)OC[C@@H](O)C(F)(F)F)CC2 [Example 141] | > 8.90
6 | COc1cc2c(cc1C(=O)Nc1cccc(-c3nnnn3[C@H](C)CO)n1)CN(S(=O)(=O)c1ccccn1)CC2 [Example 104] | > 8.90
7 | C[C@H](CO)n1nnnc1-c1cccc(NC(=O)c2cc3c(cc2F)CCN(c2ccccn2)C3)n1 [Example 122] | 8.00 to 8.90
8 | COc1cc2c(cc1C(=O)Nc1cccc(-c3nnnn3[C@H](C)CO)n1)CN(C(=O)[C@@H](O)CC(C)C)CC2 [Example 113] | > 8.90
9 | CC(C)n1cnnc1-c1cccc(NC(=O)c2cc3c(cc2F)CCN(C(=O)OCC(F)(F)F)C3)n1 [Example 21, 2,2,2-trifluoroethyl 6-fluoro-7-((6-(4-isopropyl-4H-1,2,4-triazol-3-yl)pyridin-2-yl)carbamoyl)-3,4-dihydroisoquinoline-2(1H)-carboxylate] | 8.00 to 8.90
10 | C[C@H](CO)n1nnnc1-c1cccc(NC(=O)c2cc3c(cn2)CCN(C(=O)c2cnn(C4CC4)c2)C3)n1 [Example 100] | 8.00 to 8.90
11 | COc1cc2c(cc1C(=O)Nc1cccc(-c3nnnn3[C@H](C)CO)n1)CN(C(=O)OCC(C)(C)O)CC2 [Example 130, 2-hydroxy-2-methylpropyl (R)-7-((6-(1-(1-hydroxypropan-2-yl)-1H-tetrazol-5-yl)pyridin-2-yl)carbamoyl)-6-methoxy-3,4-dihydroisoquinoline-2(1H)-carboxylate] | > 8.90
12 | COc1cc2c(cc1C(=O)Nc1cccc(-c3nnnn3[C@H](C)CO)n1)CN(c1cccnc1)CC2 [Example 150, (R)—N-(6-(1-(1-hydroxypropan-2-yl)-1H-tetrazol-5-yl)pyridin-2-yl)-6-methoxy-2-(pyridin-3-yl)-1,2,3,4-tetrahydroisoquinoline-7-carboxamide] | > 8.90
13 | C[C@H](CO)n1nnnc1-c1cccc(NC(=O)c2cc3c(cc2F)CCN(C2CC2)C3)n1 [Example 120] | 7.00 to 8.00
14 | COc1cc2c(cc1C(=O)Nc1cccc(-c3nnnn3[C@H](C)CO)n1)CN(c1cnc(F)cn1)CC2 [Example 154, (R)-2-(5-fluoropyrazine-2-yl)-N-(6-(1-(1-hydroxypropan-2-yl)-1H-tetrazol-5-yl)pyridin-2-yl)-6-methoxy-1,2,3,4-tetrahydroisoquinoline-7-carboxamide] | 8.00 to 8.90
15 | COc1cc2c(cc1C(=O)Nc1cccc(-c3nnnn3[C@H](C)CO)n1)CN(c1ncccn1)CC2 [Example 84, (R)-N-(6-(1-(1-hydroxypropan-2-yl)-1H-tetrazol-5-yl)pyridin-2-yl)-6-methoxy-2-(pyrimidin-2-yl)-1,2,3,4-tetrahydroisoquinoline-7-carboxamide] | 8.00 to 8.90
16 | CC(C)n1cnnc1-c1cccc(NC(=O)c2cc3c(cn2)CCN(C(=O)C(C)(C)C)C3)n1 [Example 1, N-(6-(4-isopropyl-4H-1,2,4-triazol-3-yl)pyridin-2-yl)-6-pivaloyl-5,6,7,8-tetrahydro-2,6-naphthyridine-3-carboxamide] | 8.00 to 8.90
17 | C[C@H](CO)n1nnnc1-c1cccc(NC(=O)c2cc3c(cn2)CCN(C(=O)C(C)(C)O)C3)n1 [Example 140] | 8.00 to 8.90
18 | C[C@H](CO)n1nnnc1-c1cccc(NC(=O)c2cc3c(cn2)CCN(C(=O)N2CCOCC2)C3)n1 [Example 139] | 8.00 to 8.90
19 | CC(C)CN1CCc2cnc(C(=O)Nc3cccc(-c4nncn4C(C)C)n3)cc2C1 [Example 3, 6-isobutyl-N-(6-(4-isopropyl-4H-1,2,4-triazol-3-yl)pyridin-2-yl)-5,6,7,8-tetrahydro-2,6-naphthyridine-3-carboxamide] | 7.00 to 8.00
20 | COc1cc2c(cc1C(=O)Nc1cccc(-c3nnnn3[C@H](C)CO)n1)CN(C(=O)[C@@H]1CCOC1)CC2 [Example 142] | > 8.90
21 | COc1cc2c(cc1C(=O)Nc1cccc(-c3nnnn3[C@H](C)CO)n1)CN(C(=O)c1cnn(C3CC3)c1)CC2 [Example 97] | > 8.90
22 | C[C@H](CO)n1nnnc1-c1cccc(NC(=O)c2cc3c(cc2F)CCN(c2ncccn2)C3)n1 [Example 123] | 8.00 to 8.90
23 | CCOC(=O)N1CCc2cc(F)c(C(=O)Nc3cccc(-c4nnnn4[C@H](C)CO)n3)cc2C1 [Example 109] | 8.00 to 8.90
24 | COc1cc2c(cc1C(=O)Nc1cccc(-c3nnnn3[C@H](C)CO)n1)CN(c1ncns1)CC2 [Example 153] | 8.00 to 8.90
25 | COc1cc2c(cc1C(=O)Nc1cccc(-c3nnnn3[C@H](C)CO)n1)CN(C(=O)C1(O)CC1)CC2 [Example 114] | > 8.90
26 | COc1cc2c(cc1C(=O)Nc1cccc(-c3nncn3C(C)C)n1)CN(C(=O)C[C@H](C)O)CC2 [Example 127] | > 8.90
